Test results reported in US10385085B2, “Crystal forms of sialic acid or salt or solvate thereof” (Ultragenyx Pharmaceutical Inc., priority 2015, dated 2019).
“And” between values parts separate entries of the source, which are not always exact repeats. Equal entries are not always repeated. Blank lines part the entries; values can stand above or below the molecule they belong to.

How the values were obtained:
Type in all cases: physicochemical
[1] = Thermogravimetric/Differential Thermal Analysis (TG/DTA)
Experimental: Approximately, 10 mg of material was weighed into an open aluminium pan and loaded into a simultaneous thermogravimetric/differential thermal analyser (TG/DTA) and held at room temperature. The sample was then heated at a rate of 10° C./min from 25° C. to 300° C. during which time the change in sample weight was recorded along with any differential thermal events (DTA). Nitrogen was used as the purge gas, at a flow rate of 300 cm^3/min.

[2] = Differential Scanning Calorimetry (DSC)
Experimental: Approximately, 5 mg of material was weighed into an aluminium DSC pan and sealed non-hermetically with a pierced aluminium lid. The sample pan was then loaded into a Seiko DSC6200 (equipped with a cooler) cooled and held at 25° C. Once a stable heat-flow response was obtained, the sample and reference were heated to 210° C. at a scan rate of 10° C./min and the resulting heat flow response monitored. Nitrogen was used as the purge gas, at a flow rate of 50 cm^3/min.

[3] = PLM (morphology) of the solid forms
[4] = Approximate aqueous solubility of the solid forms (solvent addition method)
Experimental: (§1) The selected Forms (5, 3 and 2) were fully characterized by PLM, XRPD, ^1H NMR and IR spectroscopy, DSC, TG/DTA, GVS (with post-GVS XRPD), Karl Fischer titration for water content and HPLC analysis for purity. All of these forms with the addition of Form 1 were also placed under a stress-stability test, at three different conditions for one week (ambient conditions, 40° C. and 75% relative humidity, 80° C.). In addition to this, an approximate solubility test was conducted on the different solid forms using a solvent addition method.
Approximately 50 mg of each form (1, 2, 3 and 5) was weighed into a 2 ml vial. 20 μl aliquots of deionized water was added to each vial until complete dissolution of the solid was observed. The volume was noted down and the approximate water solubility calculated.

[5] = 7 day stress stability, physical form by XRPD
Experimental: XRPD analysis was carried out on a Panalytical X′pert Pro, scanning the samples between 3 and 35° […]. The material was gently ground and loaded onto a multi well plate with Kapton or mylar polymer film to support the sample. The multi well plate was then loaded into a Panalytical diffractometer running in transmission mode and analysed, using the following experimental conditions.
as §1
(§2) All four Forms (1, 2, 3 and 5) were placed under 7 day stress stability testing. This was carried out by placing the four forms under three different conditions for one week. Their physical stability was then analyzed by comparing the diffractograms and the chemical stability was checked by HPLC.

[6] = 7 day stress stability, chemical stability by HPLC; details: for Chemical stability: 1 week stress test, conditions studied; for Sialic acid Area % (HPLC): two injections
Experimental: The chemical purity was measured on an Agilent HP1100 HPLC system fitted with an Agilent variable wavelength UV detector. Samples were prepared by dissolving in diluent at a concentration of 1 mg/mL before being analysed under the following HPLC conditions:
as §1, §2

HPLC-UV chemical purity = details: summary Table 13
Experimental: The chemical purity was measured on an Agilent HP1100 HPLC system fitted with an Agilent variable wavelength UV detector. Samples were prepared by dissolving in diluent at a concentration of 1 mg/mL before being analysed under the following HPLC conditions: […]

[7] = Gravimetric Vapour Sorption (GVS) with post-GVS XRPD; details: for Polymorphic form after GVS (XRPD): material reclaimed after GVS run
Experimental: Approximately 10-20 mg of sample was placed into a mesh vapour sorption balance pan and loaded into an IGASorp Moisture Sorption Analyser balance by Hiden Analytical. The sample was subjected to a ramping profile from 40-90% relative humidity (RH) at 10% increments, maintaining the sample at each step until a stable weight had been achieved (98% step completion). After completion of the sorption cycle, the sample was dried using the same procedure to 0% RH, and finally taken back to the starting point of 40% RH. The weight change during the sorption/desorption cycles were plotted, allowing for the hygroscopic nature of the sample to be determined.

[8] = Approximate solvent solubility screen (aliquot addition); details: for solubility: 40 °C, thermodynamic from solid
Experimental: Approximately 10 mg of sialic acid was used to check the solubility in 31 different solvents or solvent mixtures.
50 μl aliquots of solvent were added in attempts to dissolve the sialic acid. The volume range used varied between 50 μl and 2 ml. Dissolution was aided by heating to 40° C. and shaking the vial between aliquots.
The mixture of solvents Ethanol:Acetone:Ethyl acetate (85:12:3 wt %) will be referred to as “Ethynol” hereafter.

[9] = 1 week under ambient conditions
[10] = stability under ambient conditions

TGA Decomposition temperature [1]: at 178.5 °C
DSC (thermal events) Endotherm [2]: 181.0° ° C.
PLM (morphology), particle size [3]: <30 μm
PLM (morphology) ([3]; particle shape): Small needles
Approximate solubility ([4]; aqueous): 105000 µg/mL
Aqueous Solubility, Solubility in g/L ([4]; deionized water, approximate, solvent addition): 105 g/L
Physical form (XRPD) after stress ([5]; 1 week at 40° C./75% RH): converts to Form 1
Physical form (XRPD) after stress ([5]; 1 week at 80° C.): stable
Physical form (XRPD) after stress [5, 9]: stable
Stability - XRPD post Stability ([5]; at 80° C.): Form 2 at 80 °C
Stability - XRPD post Stability ([5]; at RT): Form 1 + 2 at RT
Chemical stability [6]: good chemical stability
Sialic acid Area % (HPLC) ([6]; after 1 week under 40° C., 75% RH): 99.405% and 99.360%
Acetic acid Area % (HPLC) ([6]; after 1 week under 80° C.): 0.075% and 0.072%
Sodium Pyruvate Area % (HPLC) ([6]; after 1 week under 80° C.): 0.076% and 0.077%
Sialic acid Area % (HPLC) ([6]; after 1 week under 80° C.): 99.348% and 99.372%
Sialic acid Area % (HPLC) ([6]; after 1 week under ambient conditions): 99.561% and 99.605%
HPLC purity of recovered samples ([6]; after 1 week, all three conditions (ambient; 40° C./75% RH; 80° C.)): higher than 99.4%
Area % Acetic acid (HPLC) ([6]; stability under 40° C., 75% RH): 0.000%
Area % N-acetyl-D-glucosamine (HPLC) ([6]; stability under 40° C., 75% RH): 0.000%
Area % N-acetyl-D-mannosamine (HPLC) ([6]; stability under 40° C., 75% RH): 0.000%
Area % Sodium Pyruvate (HPLC) ([6]; stability under 40° C., 75% RH): 0.000%
Area % Acetic acid (HPLC) ([6]; stability under 80° C.): 0.000%
Area % N-acetyl-D-glucosamine (HPLC) ([6]; stability under 80° C.): 0.000%
Area % N-acetyl-D-mannosamine (HPLC) ([6]; stability under 80° C.): 0.000%
Area % Sialic acid (HPLC) ([6]; stability under 80° C.): 99.601% and 99.566%
Area % Sodium Pyruvate (HPLC) ([6]; stability under 80° C.): 0.000% and 0.044%
Area % Acetic acid (HPLC) [6, 10]: 0.000%
Area % N-acetyl-D-glucosamine (HPLC) [6, 10]: 0.000%
Area % N-acetyl-D-mannosamine (HPLC) [6, 10]: 0.000%
Area % Sodium Pyruvate (HPLC) [6, 10]: 0.000%
HPLC (purity) (HPLC-UV chemical purity): 99.70% and 99.80%
DVS (hygroscopicity) [7]: Goes to form 1
Hygroscopicity (GVS) [7]: slightly hygroscopic
XRPD post DVS [7]: change
Polymorphic form after GVS (XRPD) [7]: converted to Form 1
DVS, RH at which the form goes to form 1 ([7]; relative humidity): RH >50%
SMILES: CC(=O)N[C@H]1[C@H]([C@H](O)[C@H](O)CO)OC(O)(C(=O)O)C[C@@H]1O (stereo partly shown) [Form 2, N-acetylneuraminic acid]

Physical form (XRPD) after stress ([5]; 1 week at 40° C./75% RH): converts to Form 1
Physical form (XRPD) after stress ([5]; 1 week at 80° C.): stable
Physical form (XRPD) after stress [5, 9]: mixture of Forms 1 and 2
Chemical stability [6]: good
Hygroscopicity (GVS) [7]: slightly hygroscopic
GVS weight loss on sorption ([7]; RH>50%): ca. 1.5%
Polymorphic form after GVS (XRPD) [7]: transformed to Form 1
SMILES: CC(=O)N[C@H]1[C@H]([C@H](O)[C@H](O)CO)OC(O)(C(=O)O)C[C@@H]1O (stereo partly shown) [An embodiment of Form 2, N-acetylneuraminic acid]

solubility ([8]; aqueous with cosolvent or surfactant or cyclodextrin, solvent: Water:Acetic Acid (80:20) v/v): > 213000 µg/mL
solubility ([8]; organic solvent or mixture, solvent: 1,4-Dioxane): < 4900 µg/mL
solubility ([8]; organic solvent or mixture, solvent: 1-Butanol): < 6100 µg/mL
solubility ([8]; organic solvent or mixture, solvent: 2-Ethoxy ethanol): < 6800 µg/mL
solubility ([8]; organic solvent or mixture, solvent: 2-Methyl THF): < 5200 µg/mL
solubility ([8]; organic solvent or mixture, solvent: 2-propanol): < 5000 µg/mL
solubility ([8]; organic solvent or mixture, solvent: Acetic acid): < 5400 µg/mL
solubility ([8]; organic solvent or mixture, solvent: Acetone): < 5600 µg/mL
solubility ([8]; organic solvent or mixture, solvent: Acetone:Ethanol (50:50) v/v): < 5100 µg/mL
solubility ([8]; organic solvent or mixture, solvent: Acetone:Ethyl Acetate (50:50) v/v): < 4800 µg/mL
solubility ([8]; organic solvent or mixture, solvent: Acetone:Water (90:10) v/v): < 5100 µg/mL
solubility ([8]; organic solvent or mixture, solvent: Acetonitrile): < 4800 µg/mL
solubility ([8]; organic solvent or mixture, solvent: Dichloromethane): < 5100 µg/mL
solubility ([8]; organic solvent or mixture, solvent: Diisopropyl ether): < 4800 µg/mL
solubility ([8]; organic solvent or mixture, solvent: Dimethylacetamide): > 72600 µg/mL
solubility ([8]; organic solvent or mixture, solvent: Dimethylsulfoxide): > 301000 µg/mL
solubility ([8]; organic solvent or mixture, solvent: Ethanol): < 5100 µg/mL
solubility ([8]; organic solvent or mixture, solvent: Ethanol:Water (90:10) v/v): < 5200 µg/mL
solubility ([8]; organic solvent or mixture, solvent: Ethyl acetate): < 5800 µg/mL
solubility ([8]; organic solvent or mixture, solvent: Ethynol (Ethanol:Acetone:Ethyl acetate 85:12:3 wt %)): < 5300 µg/mL
solubility ([8]; organic solvent or mixture, solvent: Isopropyl acetate): < 6500 µg/mL
solubility ([8]; organic solvent or mixture, solvent: Methanol): < 5200 µg/mL
solubility ([8]; organic solvent or mixture, solvent: Methylethyl ketone): < 5700 µg/mL
solubility ([8]; organic solvent or mixture, solvent: Methylisobutyl ketone): < 6300 µg/mL
solubility ([8]; organic solvent or mixture, solvent: N-Methyl-2-pyrrolidone): > 72100 µg/mL
solubility ([8]; organic solvent or mixture, solvent: Nitromethane): < 6000 µg/mL
solubility ([8]; organic solvent or mixture, solvent: Tetrahydrofuran): < 5300 µg/mL
solubility ([8]; organic solvent or mixture, solvent: Toluene): < 5900 µg/mL
solubility ([8]; organic solvent or mixture, solvent: n-Heptane): < 5300 µg/mL
solubility ([8]; organic solvent or mixture, solvent: tert-Butylmethyl ether): < 4600 µg/mL
solubility ([8]; solvent: Water): > 212000 µg/mL
Visual Observation ([8]; solvent: 1,4-Dioxane): Partial Solubility
Visual Observation ([8]; solvent: 1-Butanol): Partial Solubility
Visual Observation ([8]; solvent: 2-Ethoxy ethanol): Partial Solubility
Visual Observation ([8]; solvent: 2-Methyl THF): Partial Solubility
Visual Observation ([8]; solvent: 2-propanol): Partial Solubility
Visual Observation ([8]; solvent: Acetic acid): Partial Solubility
Visual Observation ([8]; solvent: Acetone): Low Solubility
Visual Observation ([8]; solvent: Acetone:Ethanol (50:50) v/v): Partial Solubility
Visual Observation ([8]; solvent: Acetone:Ethyl Acetate (50:50) v/v): Low Solubility
Visual Observation ([8]; solvent: Acetone:Water (90:10) v/v): Partial Solubility
Visual Observation ([8]; solvent: Acetonitrile): Low Solubility
Visual Observation ([8]; solvent: Dichloromethane): Partial Solubility
Visual Observation ([8]; solvent: Diisopropyl ether): Low Solubility
Visual Observation ([8]; solvent: Dimethylacetamide): Soluble
Visual Observation ([8]; solvent: Dimethylsulfoxide): Soluble
Visual Observation ([8]; solvent: Ethanol): Partial Solubility
Visual Observation ([8]; solvent: Ethanol:Water (90:10) v/v): Partial Solubility
Visual Observation ([8]; solvent: Ethyl acetate): Extremely low
Visual Observation ([8]; solvent: Ethynol (Ethanol:Acetone:Ethyl acetate 85:12:3 wt %)): Partial Solubility
Visual Observation ([8]; solvent: Isopropyl acetate): Extremely low
Visual Observation ([8]; solvent: Methanol): Partial Solubility
Visual Observation ([8]; solvent: Methylethyl ketone): Partial Solubility
Visual Observation ([8]; solvent: Methylisobutyl ketone): Low Solubility
Visual Observation ([8]; solvent: N-Methyl-2-pyrrolidone): Soluble
Visual Observation ([8]; solvent: Nitromethane): Low Solubility
Visual Observation ([8]; solvent: Tetrahydrofuran): Low Solubility
Visual Observation ([8]; solvent: Toluene): Partial Solubility
Visual Observation ([8]; solvent: Water): Soluble
Visual Observation ([8]; solvent: Water:Acetic Acid (80:20) v/v): Soluble
Visual Observation ([8]; solvent: n-Heptane): Extremely low
Visual Observation ([8]; solvent: tert-Butylmethyl ether): Extremely low
SMILES: CC(=O)N[C@H]1[C@H]([C@H](O)[C@H](O)CO)OC(O)(C(=O)O)C[C@@H]1O (stereo partly shown) [Sialic acid, N-acetylneuraminic acid]
